Laboratory results from PubChem BioAssay AID2060486 (Molecular Pharmacology Branch, DTP, NCI, 2025).

Test system: IGROV1 complex spheroids (HUVEC, MSC), viability % test/control
Assay: Anticancer human tumor IGROV1 cell line growth inhibition [GQUAD];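 further: spheroids exposed to compounds for 7 days before readout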;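 on viability, T/C: 100% = DMSO vehicle control viability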
Conditions: for IC50: curve of first compound; for viability, T/C: stronger effect = lower value
Procedure, shortened: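 Multi-cell-type spheroids of tumor cells with HUVEC and mesenchymal stem cells, treated with drug combinations. Concentrations descend in half-log steps from near clinical Cmax, or from 10 microM where Cmax is unknown; viability read-out.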

[1] = second compound 0.0316 µM, first compound 0.0316 µM
[2] = second compound 0.0316 µM, first compound 0.316 µM
[3] = second compound 0.1 µM, first compound 0.0316 µM
[4] = second compound 0.1 µM, first compound 0.316 µM
[5] = second compound 0.316 µM, first compound 0.0316 µM
[6] = second compound 0.316 µM, first compound 0.316 µM
[7] = second compound 1 µM, first compound 0.0316 µM
[8] = second compound 1 µM, first compound 0.316 µM
[9] = second compound 3.16 µM, first compound 0.0316 µM
[10] = second compound 3.16 µM, first compound 0.316 µM
[11] = second compound 10 µM, first compound 0.0316 µM
[12] = second compound 10 µM, first compound 0.316 µM
[13] = second compound 0.0316 µM, first compound 0.1 µM
[14] = second compound 0.0316 µM, first compound 1 µM
[15] = second compound 0.0316 µM, first compound 3.16 µM
[16] = second compound 0.0316 µM, first compound 10 µM
[17] = second compound 0.1 µM, first compound 0.1 µM
[18] = second compound 0.1 µM, first compound 1 µM
[19] = second compound 0.1 µM, first compound 3.16 µM
[20] = second compound 0.1 µM, first compound 10 µM
[21] = second compound 0.316 µM, first compound 0.1 µM
[22] = second compound 0.316 µM, first compound 1 µM
[23] = second compound 0.316 µM, first compound 3.16 µM
[24] = second compound 0.316 µM, first compound 10 µM
[25] = second compound 1 µM, first compound 0.1 µM
[26] = second compound 1 µM, first compound 1 µM
[27] = second compound 1 µM, first compound 3.16 µM
[28] = second compound 1 µM, first compound 10 µM
[29] = second compound 3.16 µM, first compound 0.1 µM
[30] = second compound 3.16 µM, first compound 1 µM
[31] = second compound 3.16 µM, first compound 3.16 µM
[32] = second compound 3.16 µM, first compound 10 µM
[33] = second compound 10 µM, first compound 0.1 µM
[34] = second compound 10 µM, first compound 1 µM
[35] = second compound 10 µM, first compound 3.16 µM
[36] = second compound 10 µM, first compound 10 µM

## Cc1[nH]c2ccccc2c1CCNCc1ccc(/C=C/C(=O)NO)cc1 + Cc1cnc(CNC(=O)c2c(=O)c3ccc(N4CCCN(C)CC4)nc3n3c2sc2ccccc23)cn1
Second compound 0.0316 µM
  IC50: 0.00626 µM
Second compound 0.1 µM
  IC50: < 0.000999 µM
Second compound 0.316 µM
  IC50: < 0.000999 µM
Second compound 1 µM
  IC50: < 0.000999 µM
Second compound 3.16 µM
  IC50: < 0.000999 µM
Second compound 10 µM
  IC50: < 0.000999 µM
Second compound 0.0316 µM, first compound 0.000999 µM
  viability, T/C: 65.9%
Second compound 0.0316 µM, first compound 0.00316 µM
  viability, T/C: 65.3%
Second compound 0.0316 µM, first compound 0.00999 µM
  viability, T/C: 38.7%
[1]
  viability, T/C: 21.5%
Second compound 0.0316 µM, first compound 0.0999 µM
  viability, T/C: 2.35%
[2]
  viability, T/C: 0.32%
Second compound 0.1 µM, first compound 0.000999 µM
  viability, T/C: 41.6%
Second compound 0.1 µM, first compound 0.00316 µM
  viability, T/C: 36.1%
Second compound 0.1 µM, first compound 0.00999 µM
  viability, T/C: 23.9%
[3]
  viability, T/C: 19.6%
Second compound 0.1 µM, first compound 0.0999 µM
  viability, T/C: 2.91%
[4]
  viability, T/C: 0.3%
Second compound 0.316 µM, first compound 0.000999 µM
  viability, T/C: 22.5%
Second compound 0.316 µM, first compound 0.00316 µM
  viability, T/C: 25.8%
Second compound 0.316 µM, first compound 0.00999 µM
  viability, T/C: 15.5%
[5]
  viability, T/C: 15%
Second compound 0.316 µM, first compound 0.0999 µM
  viability, T/C: 3.3%
[6]
  viability, T/C: 0.05%
Second compound 1 µM, first compound 0.000999 µM
  viability, T/C: 15.4%
Second compound 1 µM, first compound 0.00316 µM
  viability, T/C: 16.3%
Second compound 1 µM, first compound 0.00999 µM
  viability, T/C: 9.69%
[7]
  viability, T/C: 6.52%
Second compound 1 µM, first compound 0.0999 µM
  viability, T/C: 1.86%
[8]
  viability, T/C: 0.04%
Second compound 3.16 µM, first compound 0.000999 µM
  viability, T/C: 8.66%
Second compound 3.16 µM, first compound 0.00316 µM
  viability, T/C: 10.2%
Second compound 3.16 µM, first compound 0.00999 µM
  viability, T/C: 9.38%
[9]
  viability, T/C: 6%
Second compound 3.16 µM, first compound 0.0999 µM
  viability, T/C: 0.07%
[10]
  viability, T/C: 0.07%
Second compound 10 µM, first compound 0.000999 µM
  viability, T/C: 6.85%
Second compound 10 µM, first compound 0.00316 µM
  viability, T/C: 7.04%
Second compound 10 µM, first compound 0.00999 µM
  viability, T/C: 5.72%
[11]
  viability, T/C: 4.82%
Second compound 10 µM, first compound 0.0999 µM
  viability, T/C: 0.14%
[12]
  viability, T/C: 0.13%

## COc1cccc2c1C(=O)c1c(O)c3c(c(O)c1C2=O)CC(O)(C(=O)CO)CC3OC1CC(N)C(O)C(C)O1 (stereo not drawn) + Cc1cnc(CNC(=O)c2c(=O)c3ccc(N4CCCN(C)CC4)nc3n3c2sc2ccccc23)cn1
Second compound 0.0316 µM
  IC50: < 0.0316 µM
Second compound 0.1 µM
  IC50: < 0.0316 µM
Second compound 0.316 µM
  IC50: < 0.0316 µM
Second compound 1 µM
  IC50: < 0.0316 µM
Second compound 3.16 µM
  IC50: < 0.0316 µM
Second compound 10 µM
  IC50: < 0.0316 µM
[1]
  viability, T/C: 40.4%
[13]
  viability, T/C: 21.2%
[2]
  viability, T/C: 7.47%
[14]
  viability, T/C: 4.08%
[15]
  viability, T/C: 0.07%
[16]
  viability, T/C: 0.9%
[3]
  viability, T/C: 29.5%
[17]
  viability, T/C: 15.3%
[4]
  viability, T/C: 9.07%
[18]
  viability, T/C: 3.71%
[19]
  viability, T/C: 0.05%
[20]
  viability, T/C: 0.74%
[5]
  viability, T/C: 18.7%
[21]
  viability, T/C: 14.9%
[6]
  viability, T/C: 7.44%
[22]
  viability, T/C: 3.57%
[23]
  viability, T/C: 0.07%
[24]
  viability, T/C: 0.73%
[7]
  viability, T/C: 11.8%
[25]
  viability, T/C: 9.55%
[8]
  viability, T/C: 7.95%
[26]
  viability, T/C: 3.7%
[27]
  viability, T/C: 0.05%
[28]
  viability, T/C: 0.66%
[9]
  viability, T/C: 10.9%
[29]
  viability, T/C: 9.14%
[10]
  viability, T/C: 6.91%
[30]
  viability, T/C: 2.27%
[31]
  viability, T/C: 0.07%
[32]
  viability, T/C: 0.41%
[11]
  viability, T/C: 11.1%
[33]
  viability, T/C: 8.57%
[12]
  viability, T/C: 5.52%
[34]
  viability, T/C: 1.8%
[35]
  viability, T/C: 0.14%
[36]
  viability, T/C: 0.45%

## CC1COCCN1c1cc(C2(O)CC3CCC(C2)O3)c2cnn(-c3ccn[nH]3)c2n1 (stereo not drawn) + Cc1cnc(CNC(=O)c2c(=O)c3ccc(N4CCCN(C)CC4)nc3n3c2sc2ccccc23)cn1
Second compound 0.0316 µM
  IC50: < 0.0316 µM
Second compound 0.1 µM
  IC50: < 0.0316 µM
Second compound 0.316 µM
  IC50: < 0.0316 µM
Second compound 1 µM
  IC50: < 0.0316 µM
Second compound 3.16 µM
  IC50: < 0.0316 µM
Second compound 10 µM
  IC50: < 0.0316 µM
[1]
  viability, T/C: 13.8%
[13]
  viability, T/C: 8.52%
[2]
  viability, T/C: 5.86%
[14]
  viability, T/C: 3.91%
[15]
  viability, T/C: 3.41%
[16]
  viability, T/C: 2.21%
[3]
  viability, T/C: 10.6%
[17]
  viability, T/C: 7.17%
[4]
  viability, T/C: 5.58%
[18]
  viability, T/C: 4.56%
[19]
  viability, T/C: 3.63%
[20]
  viability, T/C: 2.02%
[5]
  viability, T/C: 8.26%
[21]
  viability, T/C: 6.06%
[6]
  viability, T/C: 5.61%
[22]
  viability, T/C: 4.38%
[23]
  viability, T/C: 2.92%
[24]
  viability, T/C: 2.02%
[7]
  viability, T/C: 5.97%
[25]
  viability, T/C: 6.1%
[8]
  viability, T/C: 5.48%
[26]
  viability, T/C: 3.78%
[27]
  viability, T/C: 3.09%
[28]
  viability, T/C: 1.97%
[9]
  viability, T/C: 5.79%
[29]
  viability, T/C: 6.38%
[10]
  viability, T/C: 5%
[30]
  viability, T/C: 2.96%
[31]
  viability, T/C: 2.76%
[32]
  viability, T/C: 1.84%
[11]
  viability, T/C: 5.85%
[33]
  viability, T/C: 5.61%
[12]
  viability, T/C: 4.3%
[34]
  viability, T/C: 4.69%
[35]
  viability, T/C: 3.15%
[36]
  viability, T/C: 1.81%

## COc1cc(C2c3cc4c(cc3C(OC3OC5COC(C)OC5C(O)C3O)C3COC(=O)C23)OCO4)cc(OC)c1O (stereo not drawn) + Cc1[nH]c2ccc(F)cc2c1-c1nc2c3cccnc3c3ncccc3c2[nH]1
Second compound 0.0316 µM
  IC50: 0.0992 µM
Second compound 0.1 µM
  IC50: 0.11 µM
Second compound 0.316 µM
  IC50: 0.0753 µM
Second compound 1 µM
  IC50: < 0.0316 µM
Second compound 3.16 µM
  IC50: < 0.0316 µM
Second compound 10 µM
  IC50: < 0.0316 µM
[1]
  viability, T/C: 87.7%
[13]
  viability, T/C: 49.2%
[2]
  viability, T/C: 26.8%
[14]
  viability, T/C: 9.94%
[15]
  viability, T/C: 10.6%
[16]
  viability, T/C: 5.84%
[3]
  viability, T/C: 89.3%
[17]
  viability, T/C: 52.3%
[4]
  viability, T/C: 25.4%
[18]
  viability, T/C: 12%
[19]
  viability, T/C: 9.69%
[20]
  viability, T/C: 6.24%
[5]
  viability, T/C: 68.3%
[21]
  viability, T/C: 44%
[6]
  viability, T/C: 23.7%
[22]
  viability, T/C: 11.6%
[23]
  viability, T/C: 7.51%
[24]
  viability, T/C: 4.85%
[7]
  viability, T/C: 4.67%
[25]
  viability, T/C: 4.98%
[8]
  viability, T/C: 4.59%
[26]
  viability, T/C: 5.09%
[27]
  viability, T/C: 4.85%
[28]
  viability, T/C: 3.15%
[9]
  viability, T/C: 4.03%
[29]
  viability, T/C: 5.21%
[10]
  viability, T/C: 3.82%
[30]
  viability, T/C: 5.26%
[31]
  viability, T/C: 4.55%
[32]
  viability, T/C: 3.18%
[11]
  viability, T/C: 4.92%
[33]
  viability, T/C: 4.45%
[12]
  viability, T/C: 4.88%
[34]
  viability, T/C: 4.78%
[35]
  viability, T/C: 4.32%
[36]
  viability, T/C: 4.34%
